The experiment addresses F508del-CFTR (Homo sapiens, UniProt P13569, DEL508-508). As to the kind of experiment: HS-YFP iodide-influx fluorescence quenching assay, […] h incubation, Hill fit. Format: cell-based. The note with it: read-out: half-effective concentration.

Sequence of F508del-CFTR (P13569 with tags, fused parts or gaps DEL508-508): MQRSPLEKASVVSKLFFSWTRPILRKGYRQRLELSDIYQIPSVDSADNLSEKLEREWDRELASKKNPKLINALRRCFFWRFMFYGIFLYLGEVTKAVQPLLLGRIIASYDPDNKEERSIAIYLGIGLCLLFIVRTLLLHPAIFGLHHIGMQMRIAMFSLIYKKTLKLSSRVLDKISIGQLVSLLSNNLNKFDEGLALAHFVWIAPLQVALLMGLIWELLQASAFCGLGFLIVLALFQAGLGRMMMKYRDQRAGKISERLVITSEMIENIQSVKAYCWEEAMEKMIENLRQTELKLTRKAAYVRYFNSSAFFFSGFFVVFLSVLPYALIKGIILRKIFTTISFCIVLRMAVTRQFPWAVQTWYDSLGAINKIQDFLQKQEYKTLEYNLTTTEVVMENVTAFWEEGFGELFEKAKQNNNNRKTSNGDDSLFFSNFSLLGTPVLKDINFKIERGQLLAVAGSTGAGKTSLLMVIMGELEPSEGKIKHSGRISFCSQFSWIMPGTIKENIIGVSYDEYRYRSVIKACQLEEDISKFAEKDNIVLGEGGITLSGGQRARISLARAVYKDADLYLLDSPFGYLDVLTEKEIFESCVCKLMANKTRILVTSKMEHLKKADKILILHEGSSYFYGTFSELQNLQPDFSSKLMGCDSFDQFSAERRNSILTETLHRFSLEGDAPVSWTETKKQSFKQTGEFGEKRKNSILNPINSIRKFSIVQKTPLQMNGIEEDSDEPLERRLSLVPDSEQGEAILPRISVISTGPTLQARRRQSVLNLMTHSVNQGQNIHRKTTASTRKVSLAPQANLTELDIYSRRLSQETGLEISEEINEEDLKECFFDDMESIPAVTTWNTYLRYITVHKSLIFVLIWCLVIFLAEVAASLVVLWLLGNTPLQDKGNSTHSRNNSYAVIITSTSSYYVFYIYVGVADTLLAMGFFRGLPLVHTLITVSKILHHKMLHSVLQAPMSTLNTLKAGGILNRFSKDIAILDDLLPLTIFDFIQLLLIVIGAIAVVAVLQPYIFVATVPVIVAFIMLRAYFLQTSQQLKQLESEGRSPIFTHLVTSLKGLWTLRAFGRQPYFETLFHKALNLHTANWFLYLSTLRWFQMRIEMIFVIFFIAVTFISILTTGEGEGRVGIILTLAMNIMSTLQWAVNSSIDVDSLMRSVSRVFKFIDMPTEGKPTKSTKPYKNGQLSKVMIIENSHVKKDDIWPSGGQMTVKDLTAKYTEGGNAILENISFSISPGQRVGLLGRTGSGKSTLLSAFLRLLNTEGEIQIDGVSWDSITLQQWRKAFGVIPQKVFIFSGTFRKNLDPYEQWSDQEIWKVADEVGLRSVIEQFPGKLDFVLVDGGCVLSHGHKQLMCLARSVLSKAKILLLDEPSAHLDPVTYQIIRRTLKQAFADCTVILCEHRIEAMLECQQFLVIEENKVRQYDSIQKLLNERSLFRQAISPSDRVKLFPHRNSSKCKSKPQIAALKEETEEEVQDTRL

Regarding `COc1ccc(Cl)cc1NC(=O)c1cc2c([nH]1)-c1nc(NC(=O)C(C)(C)C)sc1CC2` [compound 44, N-(5-Chloro-2-Methoxyphenyl)-2-[(2,2-Dimethylpropanoyl)Amino]-5,8-Dihydro-4H-[1,3]Thiazolo[5,4-g]Indole-7-Carboxamide], the EC50 came out at 5 µM.

The record behind these values is PMC7956813, “Evaluation of Fused Pyrrolothiazole Systems as Correctors of Mutant CFTR Protein” (Molecules, 2021).
